Laboratory results from ChEMBL document CHEMBL1201862, “PubChem BioAssay data set” (2004).
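Five compound concentrations were applied to cells in 96-well plates for 48 hours; endpoints were derived by simple linear interpolation of the resulting dose-response curve. GI50 is the concentration that inhibits growth by half.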 Activity calls are given as the source filed them. Cut-off read from the data, not from the text of the source: active = GI50 up to about 1.1 µM and inactive = higher.

Columns and labels:
Test in all cases: NCI-60 cell line screen, 48 h
786-0 = tested on: 786-0
A498 = tested on: A498
A549 = tested on: A549
ACHN = tested on: ACHN
CAKI-1 = tested on: CAKI-1
CCRF-CEM = tested on: CCRF-CEM
COLO 205 = tested on: COLO 205
DLD-1 = tested on: DLD-1
DMS-114 = tested on: DMS-114
DMS-273 = tested on: DMS-273
EKVX = tested on: EKVX
HCC 2998 = tested on: HCC 2998
HCT-116 = tested on: HCT-116
HCT-15 = tested on: HCT-15
HL-60 = tested on: HL-60
HOP-18 = tested on: HOP-18
HOP-62 = tested on: HOP-62
HOP-92 = tested on: HOP-92
HT-29 = tested on: HT-29
IGROV-1 = tested on: IGROV-1
K562 = tested on: K562
KM-20L2 = tested on: KM-20L2
KM12 = tested on: KM12
LXFL 529 = tested on: LXFL 529
M14 = tested on: M14
M19-MEL = tested on: M19-MEL
MOLT-4 = tested on: MOLT-4
Malme-3M = tested on: Malme-3M
NCI-H226 = tested on: NCI-H226
NCI-H23 = tested on: NCI-H23
NCI-H460 = tested on: NCI-H460
OVCAR-3 = tested on: OVCAR-3
OVCAR-4 = tested on: OVCAR-4
OVCAR-5 = tested on: OVCAR-5
OVCAR-8 = tested on: OVCAR-8
RPMI-8226 = tested on: RPMI-8226
RXF 393 = tested on: RXF 393
RXF 631 = tested on: RXF 631
SF-268 = tested on: SF-268
SF-295 = tested on: SF-295
SF-539 = tested on: SF-539
SK-MEL-28 = tested on: SK-MEL-28
SK-MEL-2 = tested on: SK-MEL-2
SK-MEL-5 = tested on: SK-MEL-5
SK-OV-3 = tested on: SK-OV-3
SN12C = tested on: SN12C
SNB-19 = tested on: SNB-19
SNB-75 = tested on: SNB-75
SNB-78 = tested on: SNB-78
SR = tested on: SR
SW-620 = tested on: SW-620
TK-10 = tested on: TK-10
U-251 = tested on: U-251
UACC-257 = tested on: UACC-257
UACC-62 = tested on: UACC-62
UO-31 = tested on: UO-31
XF498 = tested on: XF498
LOX IMVI = tested on: LOX IMVI
NCI-H522 = tested on: NCI-H522

With `Cc1[nH]c2ccccc2c1C1=NO/C(=N\O)C(c2c(C)[nH]c3ccccc23)C1` (configuration not stated) the GI50 (786-0) was 40.7 µM (inactive), the GI50 (A498) was 42.8 µM (inactive) and the GI50 (A549) was 38.6 µM (inactive). The GI50 (ACHN) was 28.6 µM (inactive), the GI50 (CAKI-1) was 36.1 µM (inactive) and the GI50 (CCRF-CEM) was 31.4 µM (inactive). The GI50 (COLO 205) was 19.7 µM (inactive), the GI50 (DLD-1) was 42.3 µM (inactive) and the GI50 (DMS-114) was 36.8 µM (inactive). The GI50 (DMS-273) was 35.9 µM (inactive), the GI50 (EKVX) was 27.3 µM (inactive) and the GI50 (HCC 2998) was 37.9 µM (inactive). For the same molecule, the GI50 (HCT-116) was 28.3 µM (inactive), the GI50 (HCT-15) was 43 µM and the GI50 (HL-60) was 20.5 µM (inactive). The GI50 (HOP-18) was 32.4 µM (inactive), the GI50 (HOP-62) was 21.7 µM (inactive) and the GI50 (HOP-92) was 20.8 µM (inactive). For the same molecule, the GI50 (HT-29) was 22.7 µM (inactive), the GI50 (IGROV-1) was 34.8 µM (inactive) and the GI50 (K562) was 33.2 µM (inactive). For the same molecule, the GI50 (KM-20L2) was 23.8 µM (inactive), the GI50 (KM12) was 38 µM (inactive) and the GI50 (LXFL 529) was 35.6 µM (inactive). The GI50 (M14) was 26.6 µM (inactive), the GI50 (M19-MEL) was 41.3 µM (inactive) and the GI50 (MOLT-4) was 21.4 µM (inactive). For the same molecule, the GI50 (Malme-3M) was 53.2 µM (inactive), the GI50 (NCI-H226) was 37.7 µM (inactive) and the GI50 (NCI-H23) was 62.1 µM (inactive). The GI50 (NCI-H460) was 23.9 µM (inactive), the GI50 (OVCAR-3) was 26.9 µM (inactive) and the GI50 (OVCAR-4) was 39.1 µM (inactive). The GI50 (OVCAR-5) was 50 µM (inactive), the GI50 (OVCAR-8) was 56.5 µM (inactive) and the GI50 (RPMI-8226) was 34.5 µM (inactive). The GI50 (RXF 393) was 23.3 µM (inactive), the GI50 (RXF 631) was 31 µM (inactive) and the GI50 (SF-268) was 46 µM (inactive). The GI50 (SF-295) was 36.7 µM (inactive), the GI50 (SF-539) was 23.6 µM (inactive) and the GI50 (SK-MEL-28) was 52.5 µM (inactive). The GI50 (SK-MEL-2) was 40 µM (inactive), the GI50 (SK-MEL-5) was 19.9 µM (inactive) and the GI50 (SK-OV-3) was 49.9 µM (inactive). The GI50 (SN12C) was 37 µM (inactive), the GI50 (SNB-19) was 72.8 µM (inactive) and the GI50 (SNB-75) was 43.2 µM (inactive). For the same molecule, the GI50 (SNB-78) was 35.4 µM (inactive), the GI50 (SR) was 23.8 µM (inactive) and the GI50 (SW-620) was 57.5 µM (inactive). For the same molecule, the GI50 (TK-10) was 54 µM (inactive), the GI50 (U-251) was 42.9 µM (inactive) and the GI50 (UACC-257) was 71.3 µM (inactive). The GI50 (UACC-62) was 19.9 µM (inactive), the GI50 (UO-31) was 26.9 µM (inactive) and the GI50 (XF498) was 53 µM (inactive).
With `Cc1nc(N)sc1C(=O)/C=C/c1ccc(/C=C/C(=O)c2sc(NC(=O)CCCCCCCCC(=O)Nc3nc(C)c(C(=O)/C=C/c4ccc(/C=C/C(=O)c5sc(N)nc5C)cc4)s3)nc2C)cc1` the GI50 (786-0) was > 100 µM (inactive), the GI50 (A549) was > 100 µM (inactive) and the GI50 (ACHN) was > 100 µM (inactive). The GI50 (CAKI-1) was 60.4 µM (inactive), the GI50 (CCRF-CEM) was 80.9 µM (inactive) and the GI50 (COLO 205) was > 100 µM (inactive). The GI50 (DLD-1) was > 100 µM (inactive), the GI50 (DMS-114) was > 100 µM (inactive) and the GI50 (DMS-273) was > 100 µM (inactive). For the same molecule, the GI50 (EKVX) was > 100 µM (inactive), the GI50 (HCC 2998) was > 100 µM (inactive) and the GI50 (HCT-116) was 92 µM (inactive). For the same molecule, the GI50 (HCT-15) was > 100 µM, the GI50 (HL-60) was > 100 µM (inactive) and the GI50 (HOP-18) was > 100 µM (inactive). The GI50 (HOP-62) was > 100 µM (inactive), the GI50 (HOP-92) was < 0.01 µM (active) and the GI50 (HT-29) was > 100 µM (inactive). For the same molecule, the GI50 (IGROV-1) was > 100 µM (inactive), the GI50 (K562) was > 100 µM (inactive) and the GI50 (KM-20L2) was > 100 µM (inactive). The GI50 (KM12) was > 100 µM (inactive), the GI50 (LOX IMVI) was > 100 µM (inactive) and the GI50 (LXFL 529) was > 100 µM (inactive). The GI50 (M14) was > 100 µM (inactive), the GI50 (M19-MEL) was > 100 µM (inactive) and the GI50 (MOLT-4) was > 100 µM (inactive). For the same molecule, the GI50 (Malme-3M) was > 100 µM (inactive), the GI50 (NCI-H23) was > 100 µM (inactive) and the GI50 (NCI-H460) was > 100 µM (inactive). For the same molecule, the GI50 (NCI-H522) was 64.6 µM (inactive), the GI50 (OVCAR-3) was 62.8 µM (inactive) and the GI50 (OVCAR-4) was > 100 µM (inactive). The GI50 (OVCAR-5) was > 100 µM (inactive), the GI50 (OVCAR-8) was > 100 µM (inactive) and the GI50 (RPMI-8226) was > 10 µM (inactive). The GI50 (RXF 393) was > 100 µM (inactive), the GI50 (RXF 631) was > 100 µM (inactive) and the GI50 (SF-268) was > 100 µM (inactive). The GI50 (SF-295) was > 100 µM (inactive), the GI50 (SF-539) was > 100 µM (inactive) and the GI50 (SK-MEL-28) was 52.8 µM (inactive). For the same molecule, the GI50 (SK-MEL-2) was > 100 µM (inactive), the GI50 (SK-OV-3) was > 100 µM (inactive) and the GI50 (SN12C) was > 100 µM (inactive). The GI50 (SNB-19) was > 100 µM (inactive), the GI50 (SNB-78) was 58.5 µM (inactive) and the GI50 (SR) was > 100 µM (inactive). The GI50 (SW-620) was > 100 µM (inactive), the GI50 (TK-10) was > 100 µM (inactive) and the GI50 (U-251) was > 100 µM (inactive). The GI50 (UACC-257) was > 100 µM (inactive), the GI50 (UACC-62) was 27.7 µM (inactive) and the GI50 (UO-31) was > 100 µM (inactive). For the same molecule, the GI50 (XF498) was > 100 µM (inactive).
